Source: PubChem BioAssay (NCI)
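The compound was tested at five concentrations on cells cultured in 96-well plates, with a 48-hour exposure period. GI50: concentration for 50% inhibition of growth. The concentration for full growth arrest is given as TGI.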

Key:
Test in all cases: NCI anticancer screen, dose series, 48 h
[1] = test system: 786-0 renal
[2] = test system: A498 renal
[3] = test system: A549 NSCLC
[4] = test system: ACHN renal
[5] = test system: BT-549 breast
[6] = test system: CCRF-CEM leukemia
[7] = test system: COLO 205 colon
[8] = test system: DU-145 prostate
[9] = test system: EKVX NSCLC
[10] = test system: HCC-2998 colon
[11] = test system: HCT-116 colon
[12] = test system: HL-60(TB) leukemia
[13] = test system: HOP-92 NSCLC
[14] = test system: HT29 colon
[15] = test system: IGROV1 ovarian
[16] = test system: KM12 colon
[17] = test system: MCF7 breast
[18] = test system: MDA-MB-435
[19] = test system: MOLT-4 leukemia
[20] = test system: NCI-H460 lung
[21] = test system: NCI-H522 lung
[22] = test system: NCI/ADR-RES ovarian
[23] = test system: OVCAR-4 ovarian
[24] = test system: PC-3 prostate
[25] = test system: SF-268 CNS
[26] = test system: SF-295 CNS
[27] = test system: SF-539 CNS
[28] = test system: SK-OV-3 ovarian
[29] = test system: SNB-19 CNS
[30] = test system: SNB-75 CNS
[31] = test system: SR leukemia
[32] = test system: SW-620 colon
[33] = test system: T-47D breast
[34] = test system: TK-10 renal
[35] = test system: UACC-257 melanoma
[36] = test system: CAKI-1 renal
[37] = test system: HCT-15 colon
[38] = test system: HOP-62 NSCLC
[39] = test system: K-562 leukemia
[40] = test system: LOX IMVI melanoma
[41] = test system: M14 melanoma
[42] = test system: MALME-3M melanoma
[43] = test system: MDA-MB-231 breast
[44] = test system: NCI-H226 lung
[45] = test system: NCI-H23 lung
[46] = test system: OVCAR-3 ovarian
[47] = test system: OVCAR-5 ovarian
[48] = test system: OVCAR-8 ovarian
[49] = test system: RPMI-8226 leukemia
[50] = test system: RXF 393 renal
[51] = test system: SK-MEL-2 melanoma
[52] = test system: SK-MEL-28 melanoma
[53] = test system: SK-MEL-5 melanoma
[54] = test system: SN12C renal
[55] = test system: U251 CNS
[56] = test system: UACC-62 melanoma
[57] = test system: UO-31 renal

`C/C(=C\c1csc(C)n1)[C@@H]1C[C@@H]2O[C@@H]2CCC[C@H](C)[C@H](O)[C@@H](C)C(=O)C(C)(C)[C@@H](O)CC(=O)O1` showed a TGI [1] greater than 100 µM, a TGI [2] of 0.333 µM and a TGI [3] greater than 100 µM. It also gave a TGI [4] greater than 100 µM, a TGI [5] greater than 100 µM and a TGI [6] greater than 100 µM. For the same compound, the TGI [7] was 0.0804 µM, the TGI [8] was 0.00464 µM and the TGI [9] was 0.525 µM. For the same compound, the TGI [10] was less than 0.0001 µM, the TGI [11] was greater than 100 µM and the TGI [12] was greater than 100 µM. The TGI [13] was 0.608 µM, the TGI [14] was 0.000586 µM and the TGI [15] was greater than 100 µM. The TGI [16] was greater than 100 µM, the TGI [17] was 0.349 µM and the TGI [18] was less than 0.0001 µM. The TGI [19] was greater than 100 µM, the TGI [20] was greater than 100 µM and the TGI [21] was less than 0.0001 µM. For the same compound, the TGI [22] was 0.000598 µM, the GI50 [23] was 23 µM and the TGI [23] was greater than 100 µM. For the same compound, the TGI [24] was greater than 100 µM, the TGI [25] was greater than 100 µM and the TGI [26] was less than 0.0001 µM. For the same compound, the TGI [27] was less than 0.0001 µM, the TGI [28] was 0.398 µM and the TGI [29] was greater than 100 µM. It also gave a TGI [30] of less than 0.0001 µM, a TGI [31] of 0.00609 µM and a TGI [32] of 18.7 µM. The TGI [33] was greater than 100 µM, the TGI [34] was greater than 100 µM and the TGI [35] was greater than 100 µM.

In the case of `Cn1c(-c2c(N)n(CCCN3CCOCC3)c3nc(C#N)c(C#N)nc23)nc2ccccc21`, the GI50 [1] is reported as 24.7 µM, the TGI [1] is reported as greater than 69 µM and the GI50 [2] is reported as 39.4 µM. It also gave a TGI [2] of 92.5 µM, a GI50 [3] of 22.5 µM and a TGI [3] of 46.3 µM. It also gave a GI50 [4] of 41.7 µM, a TGI [4] greater than 100 µM and a GI50 [5] of 16.1 µM. For the same compound, the TGI [5] was greater than 64.5 µM, the GI50 [36] was 7.52 µM and the TGI [36] was greater than 49.6 µM. For the same compound, the GI50 [6] was 2.69 µM, the TGI [6] was greater than 28.9 µM and the GI50 [7] was greater than 42.8 µM. It also gave a TGI [7] greater than 61.7 µM, a GI50 [8] of 3.68 µM and a TGI [8] of 29.2 µM. For the same compound, the GI50 [9] was greater than 57 µM, the TGI [9] was greater than 100 µM and the GI50 [10] was 20.1 µM. It also gave a TGI [10] of 40 µM, a GI50 [11] of 4.03 µM and a TGI [11] greater than 33.4 µM. The TGI [37] was greater than 53.4 µM, the GI50 [12] was 0.704 µM and the TGI [12] was 2.08 µM. The GI50 [38] was 20.6 µM, the TGI [38] was 77.6 µM and the GI50 [13] was 2.73 µM. For the same compound, the TGI [13] was 49.8 µM, the TGI [14] was greater than 72.4 µM and the GI50 [15] was greater than 100 µM. For the same compound, the TGI [15] was greater than 100 µM, the TGI [39] was greater than 74.7 µM and the GI50 [16] was 12.4 µM. It also gave a TGI [16] of 31.4 µM, a GI50 [40] of 11.3 µM and a TGI [40] greater than 52.5 µM. It also gave a GI50 [41] greater than 100 µM, a TGI [41] greater than 100 µM and a GI50 [42] of 31.9 µM. It also gave a TGI [42] greater than 83.7 µM, a GI50 [17] of 1.48 µM and a TGI [17] greater than 43.8 µM. For the same compound, the GI50 [43] was 7.87 µM, the TGI [43] was greater than 53.1 µM and the GI50 [18] was greater than 100 µM. The TGI [18] was greater than 100 µM, the GI50 [19] was 6.73 µM and the TGI [19] was greater than 67.6 µM. The GI50 [44] was 27.8 µM, the TGI [44] was greater than 52.9 µM and the GI50 [45] was 27 µM. For the same compound, the TGI [45] was greater than 81.9 µM, the GI50 [20] was greater than 42.5 µM and the TGI [20] was greater than 64.3 µM. For the same compound, the GI50 [21] was 26.8 µM, the TGI [21] was greater than 100 µM and the GI50 [22] was greater than 28.3 µM. The TGI [22] was greater than 100 µM, the GI50 [46] was 1.8 µM and the TGI [46] was 13.4 µM. The GI50 [23] was 17.9 µM, the TGI [23] was greater than 100 µM and the GI50 [47] was greater than 77.7 µM. The TGI [47] was greater than 100 µM, the GI50 [48] was 4.99 µM and the TGI [48] was greater than 100 µM. For the same compound, the GI50 [24] was 3.82 µM, the TGI [24] was greater than 100 µM and the GI50 [49] was 0.909 µM. For the same compound, the TGI [49] was greater than 52.7 µM, the GI50 [50] was 16.4 µM and the TGI [50] was 45 µM. It also gave a GI50 [25] of 7.16 µM, a TGI [25] of 62.2 µM and a GI50 [26] of 19.6 µM. For the same compound, the TGI [26] was greater than 58.1 µM, the GI50 [27] was 1.85 µM and the TGI [27] was 7 µM. It also gave a GI50 [51] of 45.3 µM, a TGI [51] greater than 100 µM and a GI50 [52] of 3.03 µM. For the same compound, the TGI [52] was 11.8 µM, the TGI [53] was greater than 44.9 µM and the GI50 [28] was 51.7 µM. It also gave a TGI [28] greater than 100 µM, a GI50 [54] of 8.85 µM and a TGI [54] greater than 80.2 µM. For the same compound, the GI50 [29] was 23.8 µM, the TGI [29] was greater than 100 µM and the GI50 [30] was 4.34 µM. For the same compound, the TGI [30] was 25 µM, the GI50 [31] was 2.66 µM and the TGI [31] was greater than 26.6 µM. For the same compound, the GI50 [32] was 1.74 µM, the TGI [32] was greater than 45 µM and the GI50 [33] was 26.2 µM. For the same compound, the TGI [33] was greater than 69.5 µM, the GI50 [34] was 32.7 µM and the TGI [34] was 97.3 µM. The GI50 [55] was 9.7 µM, the TGI [55] was greater than 63.8 µM and the GI50 [35] was 25.7 µM. The TGI [35] was greater than 100 µM, the GI50 [56] was greater than 34.5 µM and the TGI [56] was greater than 100 µM. It also gave a GI50 [57] of 6.36 µM and a TGI [57] of 55.6 µM.
